Test results reported in patent US20210228562A1, “IRAK DEGRADERS AND USES THEREOF” (Kymera Therapeutics, Inc., priority 2019, published 2021).

What was measured:
Assay type in all cases: cell-based
OCI-LY10 cells = assay: CTG Cell Viability Assay - OCI-LY10; details: Homo sapiens, 96 h, CellTiter-Glo, 4 days incubation
Procedure: Compound-mediated viability effect on OCI-LY10 or SUDHL-2 was quantitatively determined using the CellTiter-Glo® Luminescent Cell Viability Assay kit from Promega (Catalog number G7570) following manufacturer's recommended procedures. Briefly, OCI-LY10 or SUDHL-2 cells were seeded into 384 well plates (Grenier Bio-One, Catalog number 781080) with a density of 10,000 cells per well. Compounds were then added to the assay plate with final top concentration of 10 μM and 1:3 dilution series with total of 9 doses. The final DMSO concentration was normalized to 0.2%. The assay plates were incubated at 37° C. for 4 days under 5% CO2. Then the assay plate was equilibrated at room temperature for 10 minutes. To determine cell viability, 30 μL CellTiter Glo reagent was added to each well and the assay plate was centrifuged at 1000 rpm for 30 second, incubated at room temperature for 10 min, and analyzed by detecting the luminescence using a multimode plate reader (EnVision 2105, PerkinElmer). The data was then analyzed by software Prism 7.0 from GraphPad and the dose response curves were fit using a three-parameter logistic equation to calculate IC50.

[1] = target: T1, Ikaros (protein product of gene IKZF1) (Homo sapiens, UniProt Q13422+Q96SW2); assay: Quantification of Ikaros degradation in OCI-LY10 cells (quantitative immunoblotting); details: 6 h treatment
T1 construct: endogenous in cells; host or cells: OCI-LY10
Procedure: (§1) Degradation of Ikaros (protein product of gene IKZF1) and Aiolos (protein product of gene IKZF3) were determined by quantitative immunoblotting as follows. OCI-LY10 cells, 2×10^6 cells/well, were treated with listed concentrations of IRAK4 degraders or control compounds in 6 well plates for 6 h. Cells were collected, washed with cold PBS, lysed in RIPA buffer (Boston BioProducts BP-115D) with protease/phosphatase inhibitor cocktail (Roche 05892791001/Roche 04906837001) and centrifuged at 13000 RPM for 20 min to precipitate insoluble material. The supernatant fraction was diluted in SDS-PAGE loading buffer (Beyotime Bio P0015) and 20 μL of each sample was resolved on 4-12% Bis-Tris SDS-PAGE gels (Novex, WG1402BOX). Resolved samples were transferred to nitrocellulose membranes by wet electro-transfer method at 250 mV for 1.5 h. The membrane was blocked with LICOR blocking buffer (LI-COR, 927-50000) for 1 hour, washed three times with TBST (CST #99975) for 5 minutes each and incubated with primary antibody prepared in block buffer with 0.1% Tween-20 (Solarbio, P8220) at 4° C. overnight. Ikaros antibody was rabbit monoclonal D6N9Y (CST #14859), at 1:1000 dilution. Aiolos antibody was rabbit monoclonal D1C1E (CST #15103), at 1:1000 dilution. Signal was normalized to mouse anti-beta-Actin monoclonal 8H10D10 (CST #3700) used at 1:10,000 dilution. After incubation in primary antibodies, membranes were washed three times with TBST, 5 minutes each, incubated with fluorescently labeled secondary antibodies anti-rabbit IgG (Licor, 926-32211) at 1:5000 dilution; anti-mouse IgG (LI-COR, 926-68070) at 1:5000 dilution, for 1 hour at RT. After incubation in secondary, membranes were washed three times with TBST, 5 minutes each and read on LICOR Odyssey imager. Data was reported as signal for Ikaros or Aiolos relative to signal for actin, and normalized to DMSO-treated control.

IRAK4 = target: T2, IRAK4 (Homo sapiens, UniProt Q9NWZ3); assay: IRAK4 MSD Degradation in OCI-LY10; details: OCI-LY10 cells, 24 hrs incubation; read-out: IRAK4 degradation in OCI-LY10 at 24 hrs: DC50
T2 construct: endogenous in cells; host or cells: OCI-LY10
T2 sequence (Q9NWZ3 1-460): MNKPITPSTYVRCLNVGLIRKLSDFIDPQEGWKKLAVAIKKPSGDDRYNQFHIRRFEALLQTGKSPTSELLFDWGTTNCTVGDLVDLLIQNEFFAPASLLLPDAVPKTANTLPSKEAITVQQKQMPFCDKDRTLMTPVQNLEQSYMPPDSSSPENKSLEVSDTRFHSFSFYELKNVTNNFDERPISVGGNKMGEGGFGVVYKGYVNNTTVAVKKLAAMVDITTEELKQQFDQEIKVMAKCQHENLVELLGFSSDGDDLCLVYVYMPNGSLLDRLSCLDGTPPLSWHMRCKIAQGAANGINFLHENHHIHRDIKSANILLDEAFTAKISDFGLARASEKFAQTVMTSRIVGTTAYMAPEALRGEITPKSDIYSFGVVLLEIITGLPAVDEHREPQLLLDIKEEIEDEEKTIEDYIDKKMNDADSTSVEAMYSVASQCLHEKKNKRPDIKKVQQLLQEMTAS
Procedure: Degradation of IRAK4 in OCI-LY10 was quantitatively measured using Meso Scale Discovery technology. OCI-LY10 cells were seeded in 96-well plates (Corning 3799) with a density of 300,000 cells per well in 100 μL fresh media. Compounds were then added to the assay plates with a final top concentration of 1 to 10 μM in a 1:3 dilution series with total of 8 doses. The assay plates were then incubated for 4 to 24 hours at 37° C. under 5% CO2. The assay plates were then centrifuged for 5 minutes and the cell pellets were treated with 100 μL/well RIPA lysis buffer (Boston BioProducts BP-115D) with proteinase inhibitors. To prepare MSD assay plates (Meso Scale Discovery Catalog number L15XA-3), the plates were coated with 2 μg/mL capture antibody (mouse Anti-IRAK4 antibody [2H9], ab119942) in PBS, at 40 μL/well. The plates were then incubated overnight at 4° C., washed 3 times with 150 μL/well TBST buffer (Cell Signaling Technology, Catalog number 9997S) and blocked with 150 μL/well blocking buffer (Meso Scale Discovery Catalog number R93BA-4). Cell lysates were then added to MSD assay plates and the plates were incubated at room temperature for 1 hour. The plates were then washed 3 times with 150 μL/well TBST buffer and 25 μL/well primary detection antibody (rabbit Anti-IRAK4 antibody [Y279], from Abcam. Catalog number ab32511, 1 μg/mL). The assay plates were then incubated at room temperature for 1 hour, washed 3 times with 150 μL/well TBST buffer and 25 μL/well secondary detection antibody, SULFO-TAG anti-rabbit antibody were added (anti rabbit antibody from Meso Scale Discovery, Catalog number R32AB-1, 1 μg/mL). The assay plates were then incubated at room temperature for 1 hour, washed 3 times with 150 μL/well TBST buffer, and 150 μL/well MSD reading buffer (Meso Scale Discovery catalog number R92TC-2) was added. The plates were then analyzed by a MSD reader (Meso Scale Discovery, Model Quick Plex SQ 120). The data was then analyzed by software Prism 7.0 from GraphPad and the dose-depended IRAK4 degradation were fit using a three-parameter logistic equation to calculate DC50.

[2] = target: T3, Aiolos (protein product of gene IKZF3) (Homo sapiens, UniProt Q96SW2+Q9UKT9); assay: Quantification of Aiolos degradation in OCI-LY10 cells (quantitative immunoblotting); details: 6 h treatment
T3 construct: endogenous in cells; host or cells: OCI-LY10
Procedure: as §1

T3 sequence (Q9UKT9 whole entry): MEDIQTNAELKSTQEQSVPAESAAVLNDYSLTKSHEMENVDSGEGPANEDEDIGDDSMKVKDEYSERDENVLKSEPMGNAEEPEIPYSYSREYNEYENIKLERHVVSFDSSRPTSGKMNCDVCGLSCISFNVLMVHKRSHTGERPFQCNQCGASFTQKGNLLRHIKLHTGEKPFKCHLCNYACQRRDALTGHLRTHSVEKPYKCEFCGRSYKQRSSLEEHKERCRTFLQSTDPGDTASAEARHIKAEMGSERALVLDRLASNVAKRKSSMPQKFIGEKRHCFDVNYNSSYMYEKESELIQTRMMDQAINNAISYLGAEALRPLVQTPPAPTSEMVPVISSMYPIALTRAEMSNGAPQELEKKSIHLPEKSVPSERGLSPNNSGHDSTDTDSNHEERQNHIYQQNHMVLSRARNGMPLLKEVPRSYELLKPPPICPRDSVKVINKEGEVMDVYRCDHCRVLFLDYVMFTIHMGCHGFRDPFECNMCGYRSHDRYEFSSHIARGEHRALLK
T3 sequence (Q96SW2 whole entry): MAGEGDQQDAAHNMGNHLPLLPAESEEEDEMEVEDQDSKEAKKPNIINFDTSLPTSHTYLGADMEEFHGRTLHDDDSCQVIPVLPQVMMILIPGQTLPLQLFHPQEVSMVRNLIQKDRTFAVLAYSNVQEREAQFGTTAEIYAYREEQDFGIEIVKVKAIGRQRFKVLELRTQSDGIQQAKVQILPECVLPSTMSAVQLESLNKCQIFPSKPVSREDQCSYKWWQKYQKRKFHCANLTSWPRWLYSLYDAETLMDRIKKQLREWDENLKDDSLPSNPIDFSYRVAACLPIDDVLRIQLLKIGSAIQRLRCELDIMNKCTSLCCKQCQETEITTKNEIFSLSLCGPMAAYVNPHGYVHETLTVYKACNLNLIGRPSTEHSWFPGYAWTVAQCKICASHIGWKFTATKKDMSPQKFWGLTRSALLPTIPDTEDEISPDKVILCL
T3 sequence (Q16531 whole entry partner): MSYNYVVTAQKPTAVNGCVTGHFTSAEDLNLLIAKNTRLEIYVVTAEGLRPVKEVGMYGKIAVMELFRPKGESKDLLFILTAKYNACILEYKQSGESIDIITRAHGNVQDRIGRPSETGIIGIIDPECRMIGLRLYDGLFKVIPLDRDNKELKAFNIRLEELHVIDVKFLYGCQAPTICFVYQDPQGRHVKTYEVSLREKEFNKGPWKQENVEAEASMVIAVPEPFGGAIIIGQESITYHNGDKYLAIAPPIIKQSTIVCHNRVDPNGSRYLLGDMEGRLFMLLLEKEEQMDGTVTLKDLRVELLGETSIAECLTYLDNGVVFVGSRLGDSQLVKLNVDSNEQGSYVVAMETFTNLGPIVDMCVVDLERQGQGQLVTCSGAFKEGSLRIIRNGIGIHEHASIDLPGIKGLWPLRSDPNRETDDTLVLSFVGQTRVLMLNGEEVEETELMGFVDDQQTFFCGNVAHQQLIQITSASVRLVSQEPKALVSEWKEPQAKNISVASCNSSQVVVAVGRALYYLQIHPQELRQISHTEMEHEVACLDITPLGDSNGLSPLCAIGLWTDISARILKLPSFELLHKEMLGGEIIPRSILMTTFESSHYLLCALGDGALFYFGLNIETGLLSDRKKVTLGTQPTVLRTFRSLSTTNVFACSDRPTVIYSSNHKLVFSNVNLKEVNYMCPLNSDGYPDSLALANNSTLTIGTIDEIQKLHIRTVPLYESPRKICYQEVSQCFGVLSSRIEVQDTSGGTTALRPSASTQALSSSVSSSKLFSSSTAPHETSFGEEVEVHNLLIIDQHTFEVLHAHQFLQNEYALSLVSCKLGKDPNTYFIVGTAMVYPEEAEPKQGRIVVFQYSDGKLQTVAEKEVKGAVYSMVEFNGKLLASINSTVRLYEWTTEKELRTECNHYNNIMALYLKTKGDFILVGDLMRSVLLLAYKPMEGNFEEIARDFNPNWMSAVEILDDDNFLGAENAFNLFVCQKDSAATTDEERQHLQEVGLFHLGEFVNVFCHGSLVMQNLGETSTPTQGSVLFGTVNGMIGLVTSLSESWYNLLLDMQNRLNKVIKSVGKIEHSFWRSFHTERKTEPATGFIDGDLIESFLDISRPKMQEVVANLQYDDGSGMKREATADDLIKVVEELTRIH
T1 sequence (Q13422 whole entry): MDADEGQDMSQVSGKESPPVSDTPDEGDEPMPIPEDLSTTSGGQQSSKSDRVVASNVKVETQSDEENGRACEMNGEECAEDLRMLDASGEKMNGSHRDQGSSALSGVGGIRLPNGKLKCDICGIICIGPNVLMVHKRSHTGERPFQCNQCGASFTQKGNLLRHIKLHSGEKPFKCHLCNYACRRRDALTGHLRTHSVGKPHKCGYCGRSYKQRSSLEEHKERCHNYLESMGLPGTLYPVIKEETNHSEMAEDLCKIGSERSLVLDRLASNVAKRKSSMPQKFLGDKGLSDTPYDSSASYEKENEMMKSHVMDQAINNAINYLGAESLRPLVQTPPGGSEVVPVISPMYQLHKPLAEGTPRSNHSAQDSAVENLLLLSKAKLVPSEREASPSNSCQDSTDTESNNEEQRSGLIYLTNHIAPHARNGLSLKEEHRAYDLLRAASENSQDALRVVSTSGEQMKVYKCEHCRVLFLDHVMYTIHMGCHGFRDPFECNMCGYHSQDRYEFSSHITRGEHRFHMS
T1 sequence (Q96SW2 whole entry): as the sequence (Q96SW2 whole entry) above
T1 sequence (Q16531 whole entry partner): as the sequence (Q16531 whole entry partner) above

| IC50 (OCI-LY10 cells) [nM] | DC50 [1] [nM] | DC50 (IRAK4) [nM] | DC50 [2] [nM] | SMILES |
| --- | --- | --- | --- | --- |
| < 50 | < 50 | < 50 | < 50 | C[C@H](CNc1cccc2c1C(=O)N(C1CCC(=O)NC1=O)C2=O)C1CC2(C1)CN(C[C@H]1CC[C@H](c3nc4cc(C(C)(C)O)c(NC(=O)c5cccc(C(F)(F)F)n5)cc4s3)CC1)C2 (stereo partly drawn) [I-31] |
| 50 to 100 | < 50 | < 50 | < 50 | C[C@@H](CNc1cccc2c1C(=O)N(C1CCC(=O)NC1=O)C2=O)C1CC2(C1)CN(C[C@H]1CC[C@H](c3nc4cc(C(C)(C)O)c(NC(=O)c5cccc(C(F)(F)F)n5)cc4s3)CC1)C2 (stereo partly drawn) [I-32] |
| < 50 | < 50 | < 50 | < 50 | Cc1cc(F)cc(C(=O)Nc2cc3sc([C@H]4CC[C@H](CN5CC6(CC(CCNc7cccc8c7C(=O)N(C7CCC(=O)NC7=O)C8=O)C6)C5)CC4)nc3cc2C(C)(C)O)n1 (stereo partly drawn) [I-33] |
| 50 to 100 | < 50 | < 50 | < 50 | COc1cc2nc([C@H]3CC[C@H](CN4CCC5(CC4)CC(Nc4cccc6c4C(=O)N(C4CCC(=O)NC4=O)C6=O)C5)CC3)sc2cc1NC(=O)c1cnn2cccnc12 (stereo partly drawn) [I-34] |
| 500 to 1000 | < 50 | 50 to 100 | < 50 | CC(C)(O)c1cc2nc(N3CCC(CN4CCC5(CC4)CC(CNc4cccc6c4C(=O)N(C4CCC(=O)NC4=O)C6=O)C5)CC3)sc2cc1NC(=O)c1cccc(C(F)(F)F)n1 (stereo not drawn) [I-35] |
| < 50 | < 50 | 100 to 500 | < 50 | CC(C)(O)c1cc2nc([C@H]3CC[C@H](CN4CC5(CC(CCNc6cccc7c6C(=O)N(C6CCC(=O)NC6=O)C7=O)C5)C4)CC3)sc2cc1-n1ccc2ccccc2c1=O (stereo partly drawn) [I-40] |
| < 50 | < 50 | < 50 | < 50 | CN(C[C@H]1CC[C@H](c2nc3cc(C(C)(C)O)c(NC(=O)c4cccc(C(F)(F)F)n4)cc3s2)CC1)[C@H]1CC[C@H](CNc2cccc3c2C(=O)N(C2CCC(=O)NC2=O)C3=O)CC1 (stereo partly drawn) [I-41] |
| < 50 | < 50 | 50 to 100 | < 50 | COc1cc2nc([C@H]3CC[C@H](CN4CC5(CC(CCNc6cccc7c6C(=O)N(C6CCC(=O)NC6=O)C7=O)C5)C4)CC3)sc2cc1-n1ccc2ccccc2c1=O (stereo partly drawn) [I-42] |
| 100 to 500 | 100 to 500 | < 50 | 100 to 500 | CC(C)(O)c1cc2nc([C@H]3CC[C@H](CN4CC(CCNc5cccc6c5C(=O)N(C5CCC(=O)NC5=O)C6=O)C4)CC3)sc2cc1NC(=O)c1cccc(C(F)(F)F)n1 (stereo partly drawn) [I-45] |
| < 50 | < 50 | 50 to 100 | < 50 | CN(C[C@H]1CC[C@H](c2nc3cc(C(C)(C)O)c(NC(=O)c4cccc(C(F)(F)F)n4)cc3s2)CC1)[C@H]1CC[C@@H](CCNc2cccc3c2C(=O)N(C2CCC(=O)NC2=O)C3=O)CC1 (stereo partly drawn) [I-46] |
| < 50 | < 50 | < 50 | < 50 | CC(C)(O)c1cc2nc([C@H]3CC[C@H](CN4CC5(CC(CCNc6cccc7c6C(=O)N(C6CCC(=O)NC6=O)C7=O)C5)C4)CC3)sc2cc1NC(=O)c1cccc(C(F)F)n1 (stereo partly drawn) [I-47] |
| 50 to 100 | < 50 | > 1000 | < 50 | CN(C[C@H]1CC[C@H](c2nc3cc(C(C)(C)O)c(NC(=O)c4cccc(C(F)(F)F)n4)cc3s2)CC1)[C@H]1CC[C@@H](CNc2cccc3c2C(=O)N(C2CCC(=O)NC2=O)C3=O)CC1 (stereo partly drawn) [I-48] |
| 50 to 100 | < 50 | > 1000 | < 50 | CC1(C)OC2(C)c3ccccc3CCN2c2cc3sc([C@H]4CC[C@H](CN5CC6(CC(CCNc7cccc8c7C(=O)N(C7CCC(=O)NC7=O)C8=O)C6)C5)CC4)nc3cc21 (stereo partly drawn) [I-49] |
| < 50 | < 50 | 500 to 1000 | < 50 | CC(C)(O)c1cc2nc([C@H]3CC[C@H](CN4CC5(CC(CCNc6cccc7c6C(=O)N(C6CCC(=O)NC6=O)C7=O)C5)C4)CC3)sc2cc1NC(=O)c1cccc(C(C)(F)F)c1 (stereo partly drawn) [I-50] |
| < 50 | < 50 | 100 to 500 | < 50 | CC(C)(O)c1cc2nc([C@H]3CC[C@H](CN4CC5(CC(CCNc6cccc7c6C(=O)N(C6CCC(=O)NC6=O)C7=O)C5)C4)CC3)sc2cc1NC(=O)c1cccc(C(F)(F)F)c1 (stereo partly drawn) [I-53] |
| < 50 | < 50 | 100 to 500 | < 50 | CC(C)(O)c1cc2nc([C@H]3CC[C@H](CN4CC5(CC(CCNc6cccc7c6C(=O)N(C6CCC(=O)NC6=O)C7=O)C5)C4)CC3)sc2cc1NC(=O)c1ccnc(C(F)(F)F)n1 (stereo partly drawn) [I-54] |
| < 50 | < 50 | > 1000 | < 50 | CC(C)(O)c1cc2nc([C@H]3CC[C@H](CN4CC5(CC(CCNc6cccc7c6C(=O)N(C6CCC(=O)NC6=O)C7=O)C5)C4)CC3)sc2cc1NC(=O)c1ccc(C(F)(F)F)nn1 (stereo partly drawn) [I-55] |
| 100 to 500 | 100 to 500 | 100 to 500 | 100 to 500 | CC(C)(O)c1cc2nc([C@H]3CC[C@H](CN4CCC5(CC4)CC4(CC(CCNc6cccc7c6C(=O)N(C6CCC(=O)NC6=O)C7=O)C4)C5)CC3)sc2cc1NC(=O)c1cccc(C(F)(F)F)n1 (stereo partly drawn) [I-59] |
